Source: patent publication US20250387419A1, “PARP INHIBITOR-RESISTANT PATIENT TREATED WITH TH-302” (ASCENTAWITS PHARMACEUTICALS, LTD., priority 2021, published 2025)

Experiments:
[1] = system: BRCA-mutated Capan-1 cell line; experiment: In vitro cell proliferation inhibition (CTG); format: cell-based, human; settings: for IC50: Homo sapiens, CAPAN-1, Capan-1, 3 h treatment, 72 h
Excerpt: (§1) The applicant specially studied in vitro cell proliferation inhibition of Capan-1 and BxPc-3 cell lines by the hypoxia-activated anti-cancer prodrugs TH-302 and tirapazamine under normoxia and hypoxia. The Capan-1 cell line was a BRCA-mutated cell line, and the BxPc-3 cell line was a BRCA wild-type (i.e., non-BRCA-mutated) cell line. This experiment was intended to verify the difference of the hypoxia-activated anti-cancer prodrugs, TH-302 and tirapazamine, in sensitivity to BRCA mutations.
(§2) • 1) Capan-1/BxPc-3 cell suspensions were added to two types of 24-well plates, 495 μL each well. Density of the cells was 6×10^4 per well. 24-well plates with glass inserts were used in hypoxic tests, and ordinary plastic 24-well plates were used in normoxic tests. • 2) The cells were incubated overnight in an incubator at 37° C. in 5% CO2. • 3) Compound Processing
(§3) A hypoxia workstation was tuned to create a hypoxic environment (O2<0.01%), and an oxygen indicator was used to confirm the hypoxia in the workstation.
(§4) 24 hours after cell seeding, the 24-well plates with glass inserts were transferred into the hypoxia workstation.
(§5) The 24-well plates were placed on vortex shakers, uncovered and shaken to allow air exchange for 5 minutes.
(§6) To each well in a monotherapy group, a 100× test compound solution was added.
(§7) 24 hours after cell seeding, 5 μL of the 100× test compound solution was added to each well. Three replicate wells were set up for each test group.

[2] = system: BRCA wild-type BxPc-3 cell line; experiment: In vitro cell proliferation inhibition (CTG); format: cell-based; settings: for IC50: Homo sapiens, BXPC-3, BxPc-3, 3 h treatment, 72 h
Excerpt: as §1, §2, §3, §4, §5, §6, §7

For `Nc1n[n+]([O-])c2ccccc2[n+]1[O-]` [tirapazamine, reference compound], the “Ratio (21% O2/0.01% O2)” value ([1]; Capan-1) was >68.82, the IC50 ([1]; 21% O2) was > 2000 µM and the IC50 ([1]; <0.01% O2) was 29.1 µM. The “Ratio (21% O2/0.01% O2)” value ([2]; BxPc-3) was >60.19, the IC50 ([2]; 21% O2) was > 2000 µM and the IC50 ([2]; <0.01% O2) was 33.2 µM.
